How the values were obtained:
Type in all cases: cell-based, human
[1] = test system: HCT116-S100A4 cells; assay: Wound healing assay (directed migration); conditions: 1 μM daily, 4 days
Description: (§1) For wound healing assay HCT116, SW620, LS174T, SW480 and DLD-1 cells were grown to form 60% confluent monolayers of cells in which a wound of about 300 μm width was inflicted with a sterile pipette tip. The medium was exchanged to remove non-adherent cells and the wounded monolayer was treated with 1 μM niclosamide or the respective amount of DMSO every 24 hours for 4 consecutive days. The progress of wound closure was monitored with microphotographs of 10× magnification taken with the Leica DM IL light microscope (Leica Microsystems) on day 0 and day 4. The wound healing experiment was performed three independent times.
(§2) (A) Cell migration of HCT116-vector and HCT116-S100A4 cells exposed to niclosamide treatment. Cells were treated with 1 μM niclosamide for 24 hours and migration rates were measured with Boyden chamber assay. […] Cells were treated with 1 μM niclosamide for 24 hours and cell invasion was determined by Boyden chamber assay. (C) Directed migration of HCT116-vector and HCT116-S100A4 cells exposed to niclosamide treatment analyzed by wound healing assay. […] Cells were treated daily with 1 μM niclosamide and cell viability was determined with MTT assay. […] (F) Quantification of colonies formed. Number of colonies (of more than 4 cells) was counted and normalized to solvent-treated HCT116-vector cells. […]

[2] = test system: HCT116-vector cells; assay: Wound healing assay (directed migration); conditions: 1 μM daily, 4 days
Description: as §1, §2

[3] = test system: HCT116-vector cells and HCT116-S100A4 cells; assay: Anchorage-dependent cell proliferation (MTT); conditions: 1 μM daily
Description: For cell proliferation determination of HCT116, SW620, LS174T, SW480 and DLD-1 cells 2×10^3 cells were seeded in 96-well-plates (for each day one plate) and were given 24 hours to attach to the bottom of the well. Cells were from then on treated daily with 1 μM niclosamide or the respective amount of DMSO. For determination of viable cells 3-(4,5-dimethyl-2-thiazol)-2,5-diphenyl-2H-tetrazolium bromide (MTT; Sigma) was added to a final concentration of 0.5 mg per mL and incubated for 3 hours at 37° C. and 5% CO2 in a humidified incubator. […] Crystallized MTT was resolved by 10% SDS in 10 mM HCl and the absorption was measured at 560 nm. […] The average MTT metabolisation was determined of two independent experiments each performed in triplicate.
as §2, with “formed.” for “formed. Number of colonies (of more than 4 cells) was counted and normalized to solvent-treated HCT116-vector cells.”

Which wound closure [1] does the source give for `O=C(Nc1ccc([N+](=O)[O-])cc1Cl)c1cc(Cl)ccc1O` [niclosamide, 2′,5-dichloro-4′-nitrosalicylanilide] here?
The wound closure was “able to migrate into the wound and close the gap”.

And the wound closure [2]?
Its wound closure is “impaired”.

What about the anchorage-dependent cell proliferation [3] of the same molecule?
The anchorage-dependent cell proliferation was “reduction of cell proliferation in both cell lines”.
